Data from patent US6146554A, “Photochromic naphtopyrane colorants, method for the production and use thereof, photochromic object” (Optische Werke G. Rodenstock, priority 1997, dated 2000).

Experiments:
Assay type in all cases: physicochemical
[1] = Brightening rate and brightening kinetics in the polymer Transhade-150; details: for Δ(10 min, 23° C.) relative brightening: within 10 min at 23° C.
Protocol: For a further illustration of the foregoing explanations comparative tests have been carried out again on the inventive compounds and on known compounds. The compounds used are derived from the compound of the following general formula: [drawing 5]
The brightening rate and the brightening kinetics were measured for differently substituted systems in the polymer Transhade-150 of the company of Tokuyama at different temperatures. The results obtained are summarised in the following, with the following terms being used:
Δ=relative brightening within 10 minutes at 23° C.
=100% (.tau.10 min-.tau.s)/(.tau.0-.tau.s)
.tau.s is the transmission achieved after 15 min of obscuration
.tau.0 is the transmission in the fully brightened condition
.tau.10 min is the transmission after 10 min brightening in the dark
T1/2 =time elapsing up to a brightening level corresponding to half the darkening level (half-period)
The brightening kinetics of differently substituted systems was determined, with R1, R2 and R3 representing either the methoxy group or hydrogen; the measurements were performed at 23° C. and 40° C.
Production of the test specimens:
(§1) 500 ppm of the respective photochromic dye are dissolved in the employed monomer (TRANSHADE-150 from the company of Tokuyama; index of refraction 1.52) at room temperature while stirring. After the addition of an initiator of the alkyl peroxy-ester type (1.5% by weight) degassing is performed twice and subsequently the polymerisation is carried out in correspondence with the temperature programme recommended by the Tokuyama company. The glass casting moulds are coloured in black so that the entirety of the photochromic dyes may be integrated into the matrix in a non-excited state. After completion of the polymerisation process the test specimens are additionally tempered at 100° C. for 2 hours.
Plotting of the kinetics graphs:
For the determination of the brightening rates the test specimens so produced were measured in a common kinetics test bench (irradiation with 50 klux in compliance with EN 1836, item 6.1.3.1.1). The exposure time was 15 minutes in each case, brightening takes place in the dark. During exposure and brightening the transmission graph--evaluated by the sensitivity to brightness of the human eye, V λ--is recorded. The glass temperature is controlled via a cuvette designed for being controlled by means of a thermostat.

[2] = Absorption maximums of the closed and open forms and colour (Table 1, FIGS. 4 and 5); details: for max closed form / max closed form (shoulder): closed (not excited) form; for max closed form: Transhade-150 test specimen, 500 ppm; for colour / max open form: open (excited) form
Excerpt: For illustration of the aforedescribed bathochromic shift of the inventive compounds, compared against prior art, comparative tests have been carried out.
The first three compounds in Table 1--V1, V2 and Example 3--correspond to prior art (cf. WO 96/14596); the production of V1 and V2 is described there in details.
The production of the test specimens and the measuring methodology are described in details i the Examples.
FIGS. 4 and 5 show the absorption of the closed form or the absorption of the open form, compared against the absorption of the prior art compounds V1 and V2, expressed by plotting the extinction versus the wavelength. For a better recognition of the bathochromic shift a normalisation of the absorption intensity to roughly the same value has been made in the open form.
Absorption maximums of the open and closed forms, starting out
as §1

[3] = Photochromy observed in solution and in the glass
Protocol: (ix) 1 g of the above reaction product is dissolved in 50 ml of absolute THF while stirring and cooled in an ice bath. Lithium aluminium hydride is added in small portions until the colour of the reaction solution does no longer brighten up. Stirring is then continued for another 10 min. and the solution is poured into water, acidified with conc. hydrochloric acid until the phases are clear whereupon the organic phase is isolated. After extraction with water, drying over sodium sulphate and removal of the solvent by rotation a brownish viscous residue remains which crystallises when methanol is added. The suspension is stirred at room temperature for some minutes more and then the precipitate is exhausted. The slightly brownish solid (0.8 g) was identified as 6-methoxy-3-(4-methoxy phenyl)-3-phenyl-13-hydroxy-benz[p]indeno[2,1-f]naphtho[1,2-b]pyrane by means of the NMR spectrum.

[4] = Table 3: R1 = OCH3, R2 = R3 = H
[5] = Table 4: R1 = R3 = OCH3, R2 = H

COc1ccc(C2(c3ccccc3)C=Cc3c4c(c5ccc(OC)cc5c3O2)-c2ccccc2C4(O)c2ccccc2)cc1 (stereo not shown) [Example 5, 13-hydroxy-6-methoxy-3-(4-methoxyphenyl)-3,13-diphenyl indeno[2,1-f]-naphtho[1,2-b]pyrane]
T1/2 (40° C.) [1, 4]: 7.0 min | Δ(10 min, 23° C.) relative brightening [1, 4]: 22%

COc1ccc(C2(c3ccccc3)C=Cc3c4c(c5ccc(OC)cc5c3O2)-c2ccc3ccccc3c2C4O)cc1 (stereo not shown) [Example 1, 6-methoxy-3-(4-methoxyphenyl)-3-phenyl-13-hydroxy-benz[p]indeno[2,1-f]naphtho[1,2-b]pyrane]
max closed form [2]: 385 nm | colour [2]: green | max open form [2]: 600 nm | photochromy colour [3]: green photochromy

COc1ccc(C2(c3ccccc3)C=Cc3c4c(c5ccc(OC)cc5c3O2)-c2ccccc2C4O)cc1 (stereo not shown) [Example 3, 6-methoxy-3-(4-methoxyphenyl)-3-phenyl-13-hydroxy-indeno[2,1-f]-naphtho[1,2-b]pyrane]
max closed form (shoulder) [2]: 375 nm | max closed form [2]: 360 nm | colour [2]: blue | max open form [2]: 575 nm

COc1ccc(C2(c3ccccc3)C=Cc3c4c(c5ccc(OC)cc5c3O2)-c2ccccc2C4(O)c2cc(C)ccc2C)cc1 (stereo not shown) [Example 8, 6-methoxy-3-(4-methoxyphenyl)-3-phenyl-13-(2,5-dimethylphenyl)-13-hydroxy-indeno[2,1-f]naphtho[1,2-b]pyrane]
T1/2 (40° C.) [1, 4]: 4.0 min | Δ(10 min, 23° C.) relative brightening [1, 4]: 36%

COc1ccc(C2(c3ccc(OC)cc3)C=Cc3c4c(c5ccc(C)cc5c3O2)-c2ccc(C)cc2C4O)cc1 (stereo not shown) [Example V2]
max closed form (shoulder) [2]: 375 nm | max closed form [2]: 350 nm | colour [2]: blue-violet | max open form [2]: 570 nm

COc1ccc(C2(c3ccccc3)C=Cc3c4c(c5ccc(OC)cc5c3O2)-c2ccccc2C4(O)c2ccccc2C)cc1 (stereo not shown) [Example 7]
T1/2 (40° C.) [1, 4]: 4.2 min | Δ(10 min, 23° C.) relative brightening [1, 4]: 34%

COc1ccc(C2(c3ccc(OC)cc3)C=Cc3c4c(c5ccc(OC)cc5c3O2)-c2ccccc2C4(O)c2ccccc2)cc1 (stereo not shown) [Example V3]
T1/2 (40° C.) [1, 5]: 2.5 min | Δ(10 min, 23° C.) relative brightening [1, 5]: 43%

COc1ccc(C2(c3ccc(OC)cc3)C=Cc3c4c(c5ccc(OC)cc5c3O2)-c2ccccc2C4(O)c2cccc3ccccc23)cc1 (stereo not shown) [Example V4]
T1/2 (40° C.) [1, 5]: 2.5 min | Δ(10 min, 23° C.) relative brightening [1, 5]: 44%

CCC1(O)c2ccccc2-c2c1c1c(c3cc(OC)ccc23)OC(c2ccccc2)(c2ccc(OC)cc2)C=C1 (stereo not shown) [Example 4, 6-methoxy-3-(4-methoxyphenyl)-3-phenyl-13-ethyl-13-hydroxy-indeno[2,1-f]naphtho[1,2-b]pyrane]
T1/2 (40° C.) [1, 4]: 7.0 min | Δ(10 min, 23° C.) relative brightening [1, 4]: 25%

COc1ccc(C2(c3ccccc3)C=Cc3c4c(c5ccc(OC)cc5c3O2)-c2ccccc2C4(O)c2sccc2C)cc1 (stereo not shown) [Example 9, 6-methoxy-3-(4-methoxyphenyl)-3-phenyl-13-(3-methyl-2-thienyl)-13-hydroxy-indeno[2,1-f]naphtho[1,2-b]pyrane]
T1/2 (40° C.) [1, 4]: 3.4 min | Δ(10 min, 23° C.) relative brightening [1, 4]: 38%

COc1ccc(C2(c3ccccc3)C=Cc3c4c(c5ccc(OC)cc5c3O2)-c2ccccc2C4(O)c2cccc3ccccc23)cc1 (stereo not shown) [Example 6, 6-methoxy-3-(4-methoxyphenyl)-3-phenyl-13-(1-naphthyl)-13-hydroxy-indeno [2,1-f]-naphtho[1,2-b]pyrane]
T1/2 (40° C.) [1, 4]: 5.0 min | Δ(10 min, 23° C.) relative brightening [1, 4]: 29%
